We go through 13 compounds from ChEMBL document CHEMBL5576046, “Replacement of sulfonamide by sulfoximine within a helicase-primase inhibitor with restricted flexibility” (Bioorg Med Chem Lett, 2024).

Common to all, as to type: functional, organism-based
Experiment [1] concerns Human alphaherpesvirus 2. Put plainly: Antiviral activity against HSV-2 infected in human ARPE-19 cells assessed as inhibition of viral replication incubated for 16 hrs by fluorescence based analysis. The following applies: Human alphaherpesvirus 2, ARPE-19, 16 h.
For experiment [2], the system named is Human alphaherpesvirus 2. Put plainly: Antiviral activity against HSV-2.
Experiment [3] has as its system Human alphaherpesvirus 1. Put plainly: Antiviral activity against HSV-1 by CPE assay.
The test system of experiment [4] is Human alphaherpesvirus 1. Nature of the experiment: Antiviral activity against HSV-1.

With `NS(=O)(=O)c1cc2c(cc1F)CCN2C(=O)[C@@H]1Cc2ccc(-c3ccccn3)cc2C1`, in experiment [1], the IC50 worked out at 6 nM.
With `Cc1nc(N(C)C(=O)[C@@H]2Cc3ccc(-c4cc(F)ccc4F)cc3C2)sc1S(N)(=O)=O`, the IC50 in experiment [2] (Human alphaherpesvirus 2) amounted to 16 nM; in experiment [3] (Human alphaherpesvirus 1), 1 nM.
Turning to `CS(=N)(=O)c1cc2c(cc1F)CCN2C(=O)[C@@H]1Cc2ccc(-c3ccccn3)cc2C1` (stereo partly specified), in experiment [1], the concentration for half-maximal inhibition (IC50) came out at 37 nM.
With `CS(=N)(=O)c1cc2c(cc1F)CCN2C(=O)[C@@H]1Cc2ccc(-c3cc(F)ccc3F)cc2C1` (stereo partly specified), in experiment [1], the concentration for half-maximal inhibition (IC50) worked out at 48 nM.
The same measure, in the same setting: under `NS(=O)(=O)c1cc2c(cc1F)CCN2C(=O)[C@@H]1Cc2ccc(-c3cc(F)ccc3F)cc2C1` stands 12 nM.
As for `Cc1nc(N(C)C(=O)Cc2ccc(-c3cc(F)ccc3F)cc2)sc1S(C)(=N)=O` (stereo unspecified), the values for the IC50 in experiment [4] and in experiment [2] (Human alphaherpesvirus 2) were 19 nM and 28 nM, respectively.
Regarding `Cc1nc(N(C)C(=O)[C@H]2Cc3ccc(-c4cc(F)ccc4F)cc3C2)sc1S(N)(=O)=O`, the IC50 turned out to be 16000 nM in experiment [2] (Human alphaherpesvirus 2) and 2000 nM in experiment [3] (Human alphaherpesvirus 1).
Compound `Cc1nc(N(C)C(=O)[C@@H]2Cc3ccc(-c4ccccn4)cc3C2)sc1S(N)(=O)=O` gave an IC50 in experiment [3] (Human alphaherpesvirus 1) of 7 nM.
Turning to `Cc1nc(N(C)C(=O)C2Cc3ccc(-c4cc(F)ccc4F)cc3C2)sc1S(C)(=N)=O` (stereo in doubt; 2a), the IC50 in experiment [2] and in experiment [3] was 25000 nM in each case.
As for `Cc1nc(N(C)C(=O)C2Cc3ccc(-c4cc(F)ccc4F)cc3C2)sc1S(C)(=N)=O` (stereo in doubt; 2b), the IC50 in experiment [2] was found to be 1250 nM; in experiment [3] it was 300 nM.
The corresponding values for `Cc1nc(N(C)C(=O)C2Cc3ccc(-c4cc(F)ccc4F)cc3C2)sc1S(C)(=N)=O` (stereo in doubt; 2c) are 2000 nM and 400 nM.
The corresponding values for `Cc1nc(N(C)C(=O)C2Cc3ccc(-c4cc(F)ccc4F)cc3C2)sc1S(C)(=N)=O` (stereo in doubt; 2d) are 50000 nM and 8000 nM.
As for `Cc1nc(N(C)C(=O)Cc2ccc(-c3ccccn3)cc2)sc1S(N)(=O)=O` [PRITELIVIR], the IC50 in experiment [4] and in experiment [2] (Human alphaherpesvirus 2) was 20 nM throughout.

For orientation: IC50 means the midpoint of a concentration-inhibition curve.
